Experiment [1] has as its system tonic hind limb convulsions. As to the kind of experiment: Mouse supramaximal electroshock seizure (MES) model of generalized seizures. The format is in vivo. The procedure:
Mice were administered MES (30 mA, rectangular current: 0.6 ms pulse width, 0.2 s duration, 50 Hz) via corneal electrodes connected to a constant current shock generator (Ugo Basile: type 7801) to reliably produce tonic hind limb convulsions. The number of tonic convulsions was recorded.
Sixteen mice were studied per group. The test was performed blind.
The test substance, (−)-cis-THC, was evaluated at 4 doses (10, 50, 100 and 150 mg/kg), administered i.p. 60 minutes before MES, and compared with a vehicle control group (administered under the same experimental conditions).
Valproate (positive control) was administered at 250 mg/kg i.p. 30 minutes before MES, was used as a reference substance and was compared with a vehicle group (administered i.p. 60 minutes before MES).
Data was analysed by comparing treated groups with the appropriate vehicle control using 2-tailed Fisher's Exact Probability tests (p<0.05 considered significant).
For orientation: Protection in the maximal electroshock model is a classic sign of anticonvulsant action.

The conditions of experiment [2]: depending on the assay; cited from earlier work.
Experiment [3] concerns withdrawal threshold on hot plate at 52° C. Description: Mouse hotplate test of anti-nociceptive potential. The format is in vivo. Conditions: for Withdrawal threshold (sec) Mean +/− SEM: hot plate 52° C. As to the method: Mice underwent a minimum habituation period of 7 days prior to study commencement. Naïve mice were acclimatised to the procedure room in their home cages, with food and water available ad libitum.
Animals were treated with either treatment vehicle, (−)-cis-THC at 1, 15, 50, 100, 125 and 150 mg/kg at 10 ml/kg i.p. or Morphine 10 mg/kg or Morphine vehicle (Saline) at 10 ml/kg i.p.
Animals were placed onto a hot plate set at 52° C. and time to withdrawal threshold (first response of lifting, licking front or hind paws or trying to escape) was taken at 1-hour post treatment, or at 0.5 hour after the positive control.
Animals were culled by a schedule 1 method, immediately after the measurement.
Data were analysed by comparing withdrawal thresholds back to Vehicle treated group

Entries after “also recorded” stand apart in the source; their conditions may differ. Marks after values point to notes of the source that are not given here.

Consider `CCCC(CCC)C(=O)O` [Valproate, reference compound], for which, in experiment [1] (250 mg/kg I.P., pre-treatment time 30 mins), the “% change from vehicle in number of tonic clonic seizures after MES” value (shortened to “% change from vehicle in number”) worked out at 93.8%.
For the compound `CCCCCc1cc(O)c2c(c1)OC(C)(C)[C@@H]1CCC(C)=C[C@@H]21` [(−)-trans-THC, (−)-trans-delta-9-tetrahydrocannabinol], the “potency relative to the (+)-trans-THC isomer” value in experiment [2] is on record as 6-100 times.
For `CCCCCc1cc(O)c2c(c1)OC(C)(C)[C@H]1CCC(C)=C[C@@H]21` (relative stereo) [(−)-cis-THC, (−)-cis-delta-9-tetrahydrocannabinol], the “Withdrawal threshold (sec) Mean +/− SEM” value in experiment [3] (1 mg/kg I.P., 1-hour post treatment) was 10.99 ± 0.92 s; in experiment [3] (15 mg/kg I.P., 1-hour post treatment), 10.22 ± 0.94 s; in experiment [3] (50 mg/kg I.P., 1-hour post treatment), 12.68 ± 1.11 s; in experiment [3] (100 mg/kg I.P., 1-hour post treatment), 14.23 ± 1.37 s; in experiment [3] (125 mg/kg I.P., 1-hour post treatment), 15.28 ± 1.19 s. Also, in experiment [3] (1 to 150 mg/kg i.p.), the “anti-nociceptive effect in the hotplate test (overall, in words)” value is recorded as “dose-related increase in withdrawal threshold; also recorded: significant anti-nociceptive effect”. For the same compound, the “% change from vehicle in number” value is “No effect” in experiment [1] (10 mg/kg I.P., pre-treatment time 60 mins); 0.0% in experiment [1] (10 mg/kg I.P., pre-treatment time 60 mins, listed as (-)-cis-THC); 25% in experiment [1] (50 mg/kg I.P., pre-treatment time 60 mins); 25.0% in experiment [1] (50 mg/kg I.P., pre-treatment time 60 mins, listed as (-)-cis-THC); 6.3% in experiment [1] (100 mg/kg I.P., pre-treatment time 60 mins); 25% in experiment [1] (150 mg/kg I.P., pre-treatment time 60 mins). Also, in experiment [1] (150 mg/kg I.P., pre-treatment time 60 mins, listed as (-)-cis-THC), the “% change from vehicle in number” value stood at 25.0%. Moreover, the “anti-convulsant effect in the MES model (overall conclusion)” value in experiment [1] (10, 50, 100 and 150 mg/kg i.p.) is listed as “did not produce a significant anti-convulsant effect”.
With `CN1CC[C@]23c4c5ccc(O)c4O[C@H]2[C@@H](O)C=C[C@H]3[C@H]1C5` [Morphine, reference compound], the “Withdrawal threshold (sec) Mean +/− SEM” value is listed as 23.17 +/− 1.54 *** sec in experiment [3] (10 mg/kg I.P., 0.5 hour after treatment) and “significant increase” in experiment [3] (10 mg/kg I.P., 0.5 hour after treatment, listed as morphine).

Source of the values: patent US20220380334A1, “(-) - CIS TETRAHYDROCANNABINOL ((-) - CIS-THC) FOR USE AS A MEDICAMENT” (GW Research Limited, priority 2019, published 2022).
